{"source": "patent US20190201419A1", "about": "“COMPOUND AND METHOD FOR THE TREATMENT AND DIAGNOSIS OF NEURODEGENERATIVE CONDITIONS” (Swansea University, priority 2013, published 2019)", "key": {"Lxrα": {"biological_target": "T1, Lxrα (Homo sapiens, UniProt Q13133)", "T1 construct": "expressed in transfected cells; host or cells: SN4741 mouse neuronal cell line", "T1 sequence (Q13133 1-447)": "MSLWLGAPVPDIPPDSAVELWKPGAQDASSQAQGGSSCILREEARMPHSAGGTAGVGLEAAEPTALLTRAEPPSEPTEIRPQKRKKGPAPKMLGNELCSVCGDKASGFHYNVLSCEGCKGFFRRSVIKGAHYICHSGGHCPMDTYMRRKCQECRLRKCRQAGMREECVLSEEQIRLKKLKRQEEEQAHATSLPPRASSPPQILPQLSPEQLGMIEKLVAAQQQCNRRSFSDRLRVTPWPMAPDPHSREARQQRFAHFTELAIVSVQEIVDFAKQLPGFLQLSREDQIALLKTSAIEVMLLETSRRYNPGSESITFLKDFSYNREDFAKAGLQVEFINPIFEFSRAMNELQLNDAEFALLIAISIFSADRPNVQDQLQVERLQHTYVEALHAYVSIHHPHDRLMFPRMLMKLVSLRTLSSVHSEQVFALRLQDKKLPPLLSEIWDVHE", "assay": "Lxrα luciferase reporter assay in SN4741 neural cells", "type": "cell-based, mouse", "conditions": "10 μM, 24 h", "text": "(§1) Luciferase Reporter Assay."}, "[1]": {"system": "Islet1+ oculomotor neurons", "assay": "Islet1+ cells in mouse E11.5 brain primary cultures", "type": "cell-based", "conditions": "for Number of Islet1+ cells / Concentration giving significant difference from vehicle in Islet1+ cells: wild type cultures; for Concentration giving significant difference from vehicle in Islet1+ cells: p<0.05", "procedure": "(§2) Primary Brain Cultures. Brains from E11.5 mice were manually dissected, plated on poly-D-lysine (150,000 cells/cm^2) and grown in serum-free N2 media consisting of 1:1 mixture of F12 and DMEM with 10 ng/mL insulin, 100 μg/mL apo-transferrin, 100 μM putrescine, 20 nM progesterone, 30 nM selenium, 6 mg/mL glucose, and 1 mg/mL BSA. Cells were treated for 3 days in vitro (DIV) with the compounds of interest, fixed with 4% PFA and processed for staining using appropriate antibodies.\n(§3) Antibodies and Detection Procedures. Cells were fixed in 4% PFA, washed in PBS and blocked in 5% normal goat serum/PBS for 1 h at room temperature. Primary antibodies were diluted in PBS (pH 7.4), 0.3% Triton X-100, 1% BSA and incubations were carried out overnight at +4° C. or at room temperature for 2 h. The antibodies used were anti-:BrdU (1:400; Abeam), Islet-1 (1:100: Developmental Studies Hybridoma Bank), cleaved caspase-3 (Aspt 75) (1:100; Cell Signaling Technology), tyrosine hydroxylase (TH; 1:1000; Pel-Freeze) GABA (1:1,000; Sigma), Bm3a (1:250; Millipore), Nkx6.1 (1:200; Novus Biologicals), choline acetyltransferase (ChAT; 1:500; Millipore) and appropriate secondary antibodies (Jackson ImmunoResearch or Alexa). Cells positive for the corresponding marker were counted directly at the microscope at a magnification of 20×. Cells were counted in every well, in eight consecutive fields (going from one side of the well to the other, passing through the center), in three different wells per experiment and in three different experiments per condition. Random pictures of the wells were taken for every condition to document the result, and representative pictures were subsequently selected to represent the quantitative data. Photos were acquired with a Zeiss Axioplan microscope and a Hamamatsu camera C4742-95 using the Openlab software."}, "Lxrβ-LBD": {"biological_target": "T2, Lxrβ-LBD (Homo sapiens, UniProt P55055)", "T2 construct": "the Lxrβ-LBD tagged with glutathione-S-transferase (GST); purchased Invitrogen", "T2 sequence (P55055 222-460 limits assumed)": "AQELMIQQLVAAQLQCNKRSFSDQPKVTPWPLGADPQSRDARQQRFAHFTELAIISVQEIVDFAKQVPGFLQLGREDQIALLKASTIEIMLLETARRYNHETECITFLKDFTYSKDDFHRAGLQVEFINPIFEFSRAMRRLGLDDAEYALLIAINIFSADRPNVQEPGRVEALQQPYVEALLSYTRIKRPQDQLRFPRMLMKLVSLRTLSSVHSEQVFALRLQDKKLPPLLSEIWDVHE", "assay": "Lanthascreen TR-FRET Lxrβ coactivator assay", "type": "binding", "text": "Lxrβ Ligand Binding Assay. For Lxrβ ligand binding activity measurement, the applicants used the Lanthascreen™ TR-FRET Lxrβ Coactivator Assay (Invitrogen). The assay uses a terbium (Tb)-labeled anti-GST antibody, a fluorescein-labeled coactivator peptide and the Lxrβ-LBD tagged with glutathione-S-transferase (GST). Binding of the agonist/ligand to Lxrβ-LBD causes a conformational change that result in an increase in the affinity of the Lxrβ for the coactivator peptide. The close proximity of the fluorescently labeled coactivator peptide to the Tb-labeled antibody causes an increase in the TR-FRET signal intensity. The TR-FRET ratio of 520/495 was calculated using a Victor multi label reader with an excitation wavelength of 340 nm and emission wavelengths of 520 nm and 495 nm, The activational capacity of potential ligands was tested in a […] polypropylene plate, following the manufacturer's protocol."}, "active caspase 3+ cells": {"system": "active caspase 3+ cells", "assay": "Active caspase 3+ cells in mouse E11.5 brain primary cultures", "type": "cell-based", "conditions": "for Number of active caspase-3+ cells: wt cultures, 3β,7α-diHCA, 3βH,7O-CA, 25-HC at 10 μM, toxic acids at low concentrations", "procedure": "as §2, §3"}, "zebrafish embryos": {"system": "zebrafish embryos", "assay": "Survival of transgenic zebrafish embryos on compound exposure", "type": "in vivo", "procedure": "(§4) Zebrafish Strain and Maintenance Zebrafish were raised on a 14/10 h day/night cycle and were kept at 28.5 ° C. Islet-1:GFP transgenic embryos were obtained via natural spawning and staged in hours or days post fertilization (hpf and dpt) according to Kimmel et al). Embryos older than 24 hpf were treated with 0.03% phenylthiourea (PTU) to inhibit pigmentation. MO injections were performed using splice site specific zebrafish lxi MO MO injected embryos were immediately dechorionated and transferred to a 96 well plate and exposed to dimethyl sulfoxide (DMSO) treated or ligand treated medium. Compound Exposure. Islet-1:GFP embryos were collected by natural mating and immediately (at 1 cell stage) dechorionated and transferred to a 96 well plate. Each of the compounds tested were obtained as 10 mM stock and diluted in embryo medium to a final concentration of 10 μM, and 200 μL was added to each well. DMSO or propan-2-ol treated embryo medium was taken as control. Ligand solutions were replaced every 12 h with fresh ligand solution prepared in PTU treated embryo medium. Embryos were collected at 48 hpf, fixed for 4 h at room temperature with 4% paraformaldehyde and then washed and kept in PBST. Immunocytochemistry was performed using an anti-GFP antibody and fluorescence was viewed and photographed using a Zeiss Axioplan compound microscope and a Zeiss Axiocam digital camera."}, "[2]": {"system": "Abca1, Abcg1 and Srebf1 transcript levels", "assay": "Quantitative PCR of Lxr target genes in SN4741 cells", "type": "cell-based, mouse", "conditions": "3 h", "procedure": "(§5) Quantitative PCR, Total RNA was extracted from SN4741. cells and zebrafish treated with the compounds of interest using the RNeasy Mini Kit (Qiagen), 1 μg was treated with RQ1 RNase-free DNase (Promega) and reverse transcribed using SuperScript II Reverse Transcriptase (invitrogen) and random primers (invitrogen) (RT+reaction). Parallel reactions without reverse transcriptase enzyme were done as a control (RT−reaction), and Sybergreen real-time quantitative PCR assays were performed. Expression levels were obtained by normalization with the Value of the housekeeping gene encoding actin obtained for every sample in parallel assays."}, "Lxrβ": {"biological_target": "T3, Lxrβ (Homo sapiens, UniProt P55055)", "T3 construct": "expressed in transfected cells; host or cells: SN4741 mouse neuronal cell line", "T3 sequence (P55055 1-460)": "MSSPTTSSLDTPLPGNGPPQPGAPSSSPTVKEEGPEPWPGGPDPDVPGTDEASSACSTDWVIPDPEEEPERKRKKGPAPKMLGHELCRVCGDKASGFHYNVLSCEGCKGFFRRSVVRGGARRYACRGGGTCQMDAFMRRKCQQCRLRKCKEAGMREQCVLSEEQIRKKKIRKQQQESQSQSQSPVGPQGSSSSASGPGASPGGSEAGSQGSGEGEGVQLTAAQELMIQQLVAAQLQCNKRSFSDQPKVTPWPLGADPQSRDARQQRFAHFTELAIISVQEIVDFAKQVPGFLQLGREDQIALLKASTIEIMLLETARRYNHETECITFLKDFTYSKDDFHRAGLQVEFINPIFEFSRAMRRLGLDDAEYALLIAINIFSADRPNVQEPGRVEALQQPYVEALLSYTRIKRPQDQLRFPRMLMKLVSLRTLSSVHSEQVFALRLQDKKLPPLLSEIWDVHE", "assay": "Lxrβ luciferase reporter assay in SN4741 neural cells", "type": "cell-based, mouse", "conditions": "for Lxrβ activation, luciferase activity (fold activation): SN4741 cells, 10 μM, 24 h", "text": "as §1"}, "[3]": {"system": "TH+ dopamine neurons, GABAergic or red nucleus neurons; Nkx6.1+ cells", "assay": "Other cell types in mouse E11.5 brain primary cultures", "type": "cell-based", "conditions": "data not shown", "procedure": "as §2, §3"}, "abca1": {"system": "abca1", "assay": "abca1 expression in zebrafish embryos", "type": "in vivo", "conditions": "10 μM", "procedure": "as §5\nZebrafish Strain and Maintenance Zebrafish were raised on a 14/10 h day/night cycle and were kept at 28.5 ° C. Islet-1:GFP transgenic embryos were obtained via natural spawning and staged in hours or days post fertilization (hpf and dpt) according to Kimmel et al). Embryos older than 24 hpf were treated with 0.03% phenylthiourea (PTU) to inhibit pigmentation. […] Immunocytochemistry was performed using an anti-GFP antibody and fluorescence was viewed and photographed using a Zeiss Axioplan compound microscope and a Zeiss Axiocam digital camera."}, "Islet-1": {"system": "Islet-1", "assay": "Islet-1 expression in Tg[Isl1:GFP] zebrafish embryos", "type": "in vivo", "conditions": "10 μM", "procedure": "as §5, §4"}}, "data": [{"compound": "CC(CCC[C@@H](C)[C@H]1CC[C@H]2[C@@H]3[C@@H](O)C=C4C[C@@H](O)CC[C@]4(C)[C@H]3CC[C@]12C)C(=O)O", "note": "(stereo partly drawn) [3β,7β-diHCA, 3β,7β-dihydroxycholest-5-en-26-oic acid]", "values": [{"measurement": "Lxrα activation, luciferase activity (fold activation)", "setting": "Lxrα", "result": "have the ability to activate both Lxrs"}, {"measurement": "Number of Islet1+ cells", "setting": "[1]", "result": "caused the loss of Islet1+ cells in the cultures"}, {"measurement": "Concentration giving significant difference from vehicle in Islet1+ cells", "setting": "[1]", "result": "≥ 2", "unit": "µM"}, {"measurement": "Competition with the effect of 3β,7α-diHCA in TR-FRET", "setting": "Lxrβ-LBD; 3β,7α-diHCA at 10 μM plus increasing concentrations of competitor", "result": "the effect of 3β,7α-diHCA was reduced to that of the latter acids"}, {"measurement": "Competitor concentration giving significant difference from 10 μM 3β,7α-diHCA alone in TR-FRET", "setting": "Lxrβ-LBD; p<0.05 vs 10 μM 3β,7α-diHCA", "result": "≥ 2"}, {"measurement": "Surviving cells in cultures", "setting": "active caspase 3+ cells; 10 μM", "result": "no surviving cells were detected"}, {"measurement": "Concentration at which toxicity is initiated", "setting": "active caspase 3+ cells; mouse, primary brain cultures from E11.5 mouse embryos, 3 days", "result": 1, "unit": "µM"}, {"measurement": "Concentration giving significant difference from vehicle in active caspase 3+ cells", "setting": "active caspase 3+ cells; p<0.05", "result": "≥ 2", "unit": "µM"}, {"measurement": "Number of active caspase-3+ cells", "setting": "active caspase 3+ cells", "result": "increased the number of active caspase-3+ cells"}, {"measurement": "Toxic effect on survival of the fish", "setting": "zebrafish embryos", "result": "had a deleterious toxic effect which impaired the survival of the fish"}, {"measurement": "Abca1, Abcg1 and Srebf1 transcript levels", "setting": "[2]", "result": "induced transcription, but to a lesser extent"}, {"measurement": "Lxr activational capacity in combination with 22R-HC", "setting": "Lxrβ; 10 μM acid + 10 μM 22R-HC", "result": "No additive effect was observed"}, {"measurement": "Lxrβ activation, luciferase activity (fold activation)", "setting": "Lxrβ", "result": "have the ability to activate both Lxrs"}]}, {"compound": "CC(CCC[C@@H](C)[C@H]1CC[C@H]2[C@@H]3C(=O)C=C4C[C@@H](O)CC[C@]4(C)[C@H]3CC[C@]12C)C(=O)O", "note": "(stereo partly drawn) [3βH,7O-CA, 3β-hydroxy-7-oxocholest-5-en-26-oic acid]", "values": [{"measurement": "Lxrα activation, luciferase activity (fold activation)", "setting": "Lxrα", "result": "have the ability to activate both Lxrs"}, {"measurement": "Effect on Islet1+ cells in Lxrα−/−β−/− cultures", "setting": "[1]; cultures from Lxrα−/−β−/− mice", "result": "eliminated"}, {"measurement": "Number of Islet1+ cells", "setting": "[1]", "result": "increased the number of Islet1+ oculomotor cells in the cultures"}, {"measurement": "Concentration giving significant difference from vehicle in Islet1+ cells", "setting": "[1]", "result": "≥ 10", "unit": "µM"}, {"measurement": "Effect on Islet1+ cells with Lxr antagonist GGPP", "setting": "[1]; wt cultures, 10 μM GGPP", "result": "blocked by the Lxr antagonist GGPP"}, {"measurement": "Number of active caspase-3+ cells", "setting": "active caspase 3+ cells", "result": "did not affect the number of active caspase-3+ cells"}, {"measurement": "Number of other midbrain neurons (TH+ dopamine, GABAergic, red nucleus)", "setting": "[3]", "result": "did not affect the number of other midbrain neurons"}, {"measurement": "abca1 expression", "setting": "abca1", "result": "enhanced expression of abca1"}, {"measurement": "Islet-1 mRNA and protein level (qPCR, western blot)", "setting": "Islet-1", "result": "accompanied by an increase in the level of Islet-1 mRNA and protein"}, {"measurement": "Islet-GFP expression", "setting": "Islet-1; embryos 48 hpf", "result": "increased Islet-GFP expression"}, {"measurement": "Number of Islet1+ cells in cranial nerves (III, IV, V, VII, X)", "setting": "Islet-1; embryos 48 hpf", "result": "had no significant effect on the number of Islet1+cells"}, {"measurement": "Islet-GFP levels after lxr morpholino injection", "setting": "Islet-1; lxr MO vs control scrambled MO", "result": "lxr MO injections abolished the in vivo increase in Islet-GFP levels"}, {"measurement": "Lxrβ activation, luciferase activity (fold activation)", "setting": "Lxrβ", "result": "have the ability to activate both Lxrs"}]}]}
